What is called melting point is the temperature of the solid-liquid transition.

This passage reports melting point results from US11098038B2, “Imidazole-based anticancer agents and derivatives thereof, and methods of making and using same” (The University of Toledo, priority 2017, dated 2021).

On to `O=C(Cc1ccc(/C=C/C(=O)c2ncc[nH]2)cc1)Nc1ccccc1` [Compound 21, (E)-2-(4-(3-(1H-imidazol-2-yl)-3-oxoprop-1-en-1-yl)phenyl)-N-phenylacetamide], for which the melting point is 211 to 214 °C.
In turn, `O=C(Cc1ccc(/C=C/C(=O)c2ncc[nH]2)cc1)Nc1cc(F)c(F)c(F)c1` [Compound 33, (E)-2-(4-(3-(1H-imidazol-2-yl)-3-oxoprop-1-en-1-yl)phenyl)-N-(3,4,5-trifluorophenyl) acetamide] registered a melting point of 255 °C.
`Cn1ccnc1C(=O)/C=C/c1ccc(CC(=O)NC2CCCCC2)cc1` [Compound 29, (E)-N-cyclohexyl-2-(4-(3-(1-methyl-1-H-imidazol-2-yl)-3-oxoprop-1-en-1-yl)phenyl) acetamide] registered a melting point of 182.5 °C.
As to `COc1ccc(NC(=O)Cc2ccc(/C=C/C(=O)c3ncc[nH]3)cc2)cc1` [Compound 19, (E)-2-(4-(3-(1H-imidazol-2-yl)-3-oxoprop-1-en-1-yl)phenyl)-N-(4-methoxyphenyl) acetamide], the melting point was 224 to 226 °C.
Compound `O=C(Cc1ccc(/C=C/C(=O)c2ncc[nH]2)cc1)Nc1c(F)c(F)c(F)c(F)c1F` [Compound 35, (E)-2-(4-(3-(1H-imidazol-2-yl)-3-oxoprop-1-en-1-yl)phenyl)-N-(perfluorophenyl)acetamide] yielded a melting point of 235 °C.
